The results in this text go back to ChEMBL document CHEMBL1201862, “PubChem BioAssay data set” (2004).

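1) Cells in 96-well plates. 2) Compound, 48 h, 5 concentrations. 3) Linear interpolation between surrounding doses. 4) Unreached endpoint = highest concentration. Abbreviation: GI50, concentration required for 50% inhibition of growth.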 Calls of active or inactive are those of the source. Cut-off read from the data, not from the text of the source: active = GI50 up to about 1.1 µM and inactive = higher.

Common to all, as to experiment: NCI anticancer screen, dose series, 48 h
Experiment [1] has as its system CAKI-1.
The subject of experiment [2] is 786-0.
In experiment [3] the test system is HOP-62.
Experiment [4] has as its system SF-295.
Experiment [5] has as its system SK-MEL-2.
Experiment [6] concerns IGROV-1.
Experiment [7] deals with NCI/ADR-RES.
Experiment [8] has as its system NCI-H522.
The test system of experiment [9] is UACC-62.
The subject of experiment [10] is MDA-N.
For experiment [11], the system named is SN12C.
Experiment [12] relates to A498.
Experiment [13] deals with K562.
In experiment [14] the test system is HCT-116.
Experiment [15] relates to CCRF-CEM.
In experiment [16] the test system is RPMI-8226.
For experiment [17], the system named is TK-10.
The subject of experiment [18] is BT-549.
For experiment [19], the system named is LOX IMVI.
Experiment [20] concerns M14.

For `c1c[nH]c(-c2cccc3nsnc23)c1`, the GI50 was 43.5 µM (inactive) in experiment [1]; > 100 µM (inactive) in experiment [2]; 30.7 µM (inactive) in [3]; > 100 µM (inactive) in [4]; > 100 µM (inactive) in experiment [5]; 22.8 µM (inactive) in experiment [6]. Besides, the GI50 in experiment [7] is > 100 µM (inactive); in experiment [8] it was > 100 µM (inactive); in [9], 71.9 µM (inactive); in experiment [10], > 100 µM (inactive); in experiment [11], 94.2 µM (inactive); in [12], 61.7 µM (inactive). Also, the GI50 is > 100 µM (inactive) in [13]; 59.7 µM (inactive) in experiment [14]; 93.1 µM (inactive) in [15]; 57.7 µM (inactive) in experiment [16]; 19.3 µM (inactive) in [17]; > 100 µM (inactive) in experiment [18]. The GI50 was 63.1 µM (inactive) in experiment [19] and > 100 µM (inactive) in experiment [20].
For the molecule `O=C(O)CCc1c2ccc(=O)c(O)c-2oc2c(O)c(O)ccc12`, the GI50 in experiment [1] was > 100 µM (inactive); in experiment [2] it was 19.4 µM (inactive); in experiment [3] it was > 100 µM (inactive); in experiment [4], 30.7 µM (inactive); in [5], > 100 µM (inactive); in experiment [6], > 100 µM (inactive). In addition, the GI50 in experiment [7] is > 100 µM (inactive); in [8], 27.4 µM (inactive); in experiment [9], > 100 µM (inactive); in [10] it was 16.3 µM (inactive); in experiment [11], 15.9 µM (inactive); in experiment [12], 46.7 µM (inactive). The GI50 in experiment [13] was 24 µM (inactive); in experiment [14], 18.9 µM (inactive); in [15], 2.29 µM (inactive); in [16], 32 µM (inactive); in experiment [17], > 100 µM (inactive); in [18] it was 87.5 µM (inactive). Also, the GI50 in experiment [19] is 20.1 µM (inactive); in [20], > 100 µM (inactive).
Consider `O=C(O)C(O)C(O)C(O)C(=O)CO` (stereo not given), for which the GI50 in [1], in experiment [2], in [3], in experiment [4], in experiment [5] and in experiment [6] was > 100 µM (inactive) each time. Further, the GI50 in [7], in experiment [8], in [9], in experiment [10], in experiment [11] and in experiment [12] was > 100 µM (inactive) each time. Further, the GI50 in experiment [13], in experiment [14], in experiment [15], in [16], in experiment [17] and in experiment [18] was > 100 µM (inactive) each time. The GI50 in experiment [19] and in experiment [20] was > 100 µM (inactive) each time.
For the molecule `CC(C)CC(=O)NC(C(=O)NC(C(=O)NC(CC(C)C)C(O)CC(=O)NC(C)C(=O)NC(CC(C)C)C(O)CC(=O)O)C(C)C)C(C)C` (stereo not given), the GI50 in [1], in [2], in experiment [3], in experiment [4], in experiment [5] and in experiment [6] was > 100 µM (inactive) throughout. Besides, the GI50 in experiment [7], in experiment [8], in [9], in experiment [10], in experiment [11] and in [12] was > 100 µM (inactive) each time. The GI50 in [13] is > 100 µM (inactive); in experiment [14], > 100 µM (inactive); in experiment [15] it was > 100 µM (inactive); in experiment [16] it was > 100 µM (inactive); in experiment [17], > 100 µM (inactive); in experiment [18], 22.1 µM (inactive). In addition, the GI50 in experiment [19] and in experiment [20] was > 100 µM (inactive) each time.
Turning to `CCCn1c(SC)nc(COC(=O)NC)c1COC(=O)NC`, the GI50 in [1], in experiment [2], in experiment [3], in [4], in experiment [5] and in experiment [6] was > 100 µM (inactive) throughout. Besides, the GI50 in [7] was > 100 µM (inactive); in experiment [8], > 100 µM (inactive); in experiment [9] it was > 100 µM (inactive); in experiment [10] it was > 100 µM (inactive); in experiment [11], > 100 µM (inactive); in experiment [12] it was 64 µM (inactive). For the same molecule, the GI50 in experiment [13], in experiment [14], in experiment [15], in [16], in experiment [17] and in experiment [18] was > 100 µM (inactive) each time. The GI50 in experiment [19] and in [20] was > 100 µM (inactive) each time.
For the molecule `NC(=O)SCC(=O)Nc1ccc2ncccc2c1`, the GI50 in experiment [1] was > 100 µM (inactive); in experiment [2], 26.8 µM (inactive); in experiment [3], > 100 µM (inactive); in [4], 53.2 µM (inactive); in experiment [5], 46.8 µM (inactive); in [6], > 100 µM (inactive). Further, the GI50 in [7] was > 100 µM (inactive); in experiment [8] it was 27.7 µM (inactive); in [9], 46.2 µM (inactive); in experiment [10] it was 61.5 µM (inactive); in [11], 56 µM (inactive); in experiment [12] it was > 100 µM (inactive). The GI50 in experiment [13] is 36.1 µM (inactive); in experiment [14], > 100 µM (inactive); in experiment [15], 29.6 µM (inactive); in experiment [16], 23.6 µM (inactive); in experiment [17], 54.7 µM (inactive); in experiment [18], 74.5 µM (inactive). Besides, the GI50 is 31.6 µM (inactive) in [19] and > 100 µM (inactive) in [20].
With `CC(=O)O[C@H]1C(=O)[C@@]2(C)C(C(OC(=O)c3ccccc3)[C@]3(O)CC(OC(=O)C(O)C(NC(=O)c4ccccc4)c4ccc(F)cc4)C(C)=C1C3(C)C)[C@]1(OC(C)=O)CO[C@@H]1C[C@@H]2O` (stereo not given in full), the GI50 in experiment [1] is 0.0942 µM (active); in [2], 0.00152 µM (active); in [3], 0.00233 µM (active); in experiment [4], 0.00401 µM (active); in [5] it was 0.00133 µM (active); in experiment [6], 0.00365 µM (active). Besides, the GI50 in [7] was 0.647 µM (active); in experiment [8] it was < 0.001 µM (active); in experiment [9] it was 0.00138 µM (active); in experiment [10], < 0.001 µM (active); in experiment [11] it was 0.00158 µM (active); in experiment [12] it was < 0.001 µM (active). Besides, the GI50 in [13] is < 0.001 µM (active); in experiment [14] it was < 0.001 µM (active); in experiment [15], 0.0014 µM (active); in experiment [16], < 0.001 µM (active); in [17] it was 0.0296 µM (active); in [18] it was 0.00152 µM (active). Further, the GI50 is 0.00129 µM (active) in experiment [19] and 0.00164 µM (active) in [20].
`Cc1ccc2c(c1)C(=O)N1CCC[C@H]1C=N2`: the GI50 in experiment [1] was 15.6 µM (inactive); in experiment [2] it was 27.1 µM (inactive); in [3] it was 27.7 µM (inactive); in experiment [4], 31.3 µM (inactive); in [5] it was 17.5 µM (inactive); in experiment [6] it was 14.3 µM (inactive). For the same molecule, the GI50 in experiment [7] is 21.1 µM (inactive); in [8], 5.13 µM (inactive); in [9], 16.6 µM (inactive); in experiment [10], 19.2 µM (inactive); in experiment [11], 23 µM (inactive); in [12], 34 µM (inactive). The GI50 is 7.76 µM (inactive) in experiment [13]; 30 µM (inactive) in [14]; 4.02 µM (inactive) in [15]; 10.1 µM (inactive) in [16]; 20.5 µM (inactive) in experiment [17]; 17.8 µM (inactive) in experiment [18]. Moreover, the GI50 in experiment [19] is 23.6 µM (inactive); in [20] it was 16.9 µM (inactive).
As for `OC1c2[nH]c3ccccc3c2CCN2CCCCC12` (stereo not given), the GI50 in [1], in experiment [2], in experiment [3], in [4], in experiment [5] and in experiment [6] was > 100 µM (inactive) throughout. Besides, the GI50 in [7], in experiment [8], in [9], in experiment [10], in [11] and in [12] was > 100 µM (inactive) in each case. Besides, the GI50 in experiment [13], in experiment [14], in [15], in experiment [16], in [17] and in [18] was > 100 µM (inactive) each time. For the same molecule, the GI50 in [19] and in experiment [20] was > 100 µM (inactive) in each case.
For the molecule `Cn1c(=O)c2c(nc(NCCCCl)n2CC(=O)O)n(C)c1=O`, the GI50 in experiment [1], in [2], in experiment [3], in [4], in [5] and in [6] was > 100 µM (inactive) in each case. Besides, the GI50 in experiment [7], in experiment [8], in [9], in experiment [10], in [11] and in experiment [12] was > 100 µM (inactive) each time. Moreover, the GI50 in experiment [13], in [14], in experiment [15], in experiment [16], in experiment [17] and in experiment [18] was > 100 µM (inactive) each time. Moreover, the GI50 in [19] and in experiment [20] was > 100 µM (inactive) in each case.
